Test results reported in ChEMBL document CHEMBL1240297 (Cancer Res, 2005).
Calls of active or inactive are those of the source. The rule behind the calls is not given here. Where a SMILES comes first, the peptide text is derived from it. The star is where a group is joined. Cbz = O=C(OCc1ccccc1)*

Tests used:
NCI-H929 [1] = test: Induction of apoptosis in human NCI-H929 cells assessed as dephosphorylation of pRb at S249/T252 at 60 uM after 1.5 hrs by immunoblotting; assay type: functional, cell-based
NCI-H929 [2] = test: Induction of apoptosis in human NCI-H929 cells assessed as changes in survivin protein level at 60 uM after 3 hrs by immunoblotting; assay type: functional, cell-based
NCI-H929 [3] = test: Induction of apoptosis in human NCI-H929 cells assessed as changes in XIAP protein level at 60 uM after 3 hrs by immunoblotting; assay type: functional, cell-based
[4] = Cytotoxicity against human NCI-H929 cells after 72 hrs by alamar blue assay; assay type: functional, cell-based; conditions: NCI-H929, 72 h
LP-1 [5] = test: Cytotoxicity against human LP-1 cells after 72 hrs by alamar blue assay; assay type: functional, cell-based; conditions: LP-1, 72 h
U-266 = test: Cytotoxicity against human U266 cells after 72 hrs by alamar blue assay; assay type: functional, cell-based; conditions: U-266, 72 h
OPM-2 = test: Cytotoxicity against human OPM2 cells after 72 hrs by alamar blue assay; assay type: functional, cell-based; conditions: OPM-2, 72 h
[6] = Cytotoxicity against human RPM18226 cells after 72 hrs by alamar blue assay; assay type: functional, cell-based; conditions: RPMI-8226, 72 h
NCI-H929 [7] = test: Induction of apoptosis in human NCI-H929 cells assessed as reduction of RNA polymerase 2 phosphoserine 2 level at 60 uM after 1.5 hrs by immunoblotting; assay type: functional, cell-based
NCI-H929 [8] = test: Induction of apoptosis in human NCI-H929 cells assessed as reduction of RNA polymerase 2 phosphoserine 5 level at 60 uM after 1.5 hrs by immunoblotting; assay type: functional, cell-based
NCI-H929 [9] = test: Induction of apoptosis in human NCI-H929 cells assessed as reduction of total RNA polymerase 2 level at 60 uM after 1.5 hrs by immunoblotting; assay type: functional, cell-based
NCI-H929 [10] = test: Induction of apoptosis in human NCI-H929 cells assessed as fast migrating hypophosphorylated RNA polymerase 2A form at 60 uM after 1.5 hrs by immunoblotting; assay type: functional, cell-based
NCI-H929 [11] = test: Induction of apoptosis in human NCI-H929 cells assessed as […] slow migrating hyperphosphorylated RNA polymerase 2O form at 60 uM after 1.5 hrs by immunoblotting; assay type: functional, cell-based
NCI-H929 [12] = test: Induction of apoptosis in human NCI-H929 cells assessed as dephosphorylation of pRb at S249/T252 at 60 uM after 8 hrs by immunoblotting; assay type: functional, cell-based
NCI-H929 [13] = test: Induction of apoptosis in human NCI-H929 cells assessed as reduction of Mcl-1 protein level at 60 uM after 3 hrs by immunoblotting; assay type: functional, cell-based
NCI-H929 [14] = test: Induction of apoptosis in human NCI-H929 cells assessed as changes in Bcl-2 protein level at 60 uM after 3 hrs by immunoblotting; assay type: functional, cell-based
NCI-H929 [15] = test: Induction of apoptosis in human NCI-H929 cells assessed as increase in level of cleaved PARP at 60 uM after 5 hrs by immunoblotting; assay type: functional, cell-based
NCI-H929 [16] = test: Induction of apoptosis in human NCI-H929 cells assessed as reduction of Hdm2 level at 60 uM after 1.5 hrs by immunoblotting; assay type: functional, cell-based
NCI-H929 [17] = test: Induction of apoptosis in human NCI-H929 cells assessed as increase of p53 accumulation at 60 uM after 1.5 hrs by immunoblotting; assay type: functional, cell-based
[18] = Selectivity ratio of IC50 for CDK9/cyclin T to IC50 for CDK7/cyclin H
[19] = Selectivity ratio of IC50 for CDK9/cyclin T to IC50 for CDK2/cyclin E
NCI-H929 [20] = test: Induction of apoptosis in human NCI-H929 cells assessed as changes in XIAP protein level at 30 uM after 3 hrs by immunoblotting; assay type: functional, cell-based
NCI-H929 [21] = test: Induction of apoptosis in human NCI-H929 cells assessed as changes in survivin protein level at 30 uM after 3 hrs by immunoblotting; assay type: functional, cell-based
NCI-H929 [22] = test: Induction of apoptosis in human NCI-H929 cells at 30 uM after 3 hrs using TUNEL staining by flow cytometry; assay type: functional, cell-based
LP-1 [23] = test: Induction of apoptosis in human LP-1 cells at 30 uM after 3 hrs using TUNEL staining by flow cytometry; assay type: functional, cell-based
RPMI-8226 [24] = test: Induction of apoptosis in human RPM18226 cells at 30 uM after 3 hrs using TUNEL staining by flow cytometry; assay type: functional, cell-based
NCI-H929 [25] = test: Induction of apoptosis in human NCI-H929 cells at 30 uM after 24 hrs using TUNEL staining by flow cytometry; assay type: functional
LP-1 [26] = test: Induction of apoptosis in human LP-1 cells at 30 uM after 24 hrs using TUNEL staining by flow cytometry; assay type: functional
RPMI-8226 [27] = test: Induction of apoptosis in human RPM18226 cells at 30 uM after 24 hrs using TUNEL staining by flow cytometry; assay type: functional
LP-1 [28] = test: Cytotoxicity against human LP-1 cells assessed as reduction of cell viability at 20 to 30 uM treated for 8 hrs followed by washout measured after total 72 hrs growth period alamar blue assay relative to control; assay type: functional
NCI-H929 [29] = test: Cytotoxicity against human NCI-H929 cells assessed as reduction of cell viability at 20 to 30 uM treated for 16 hrs followed by washout measured after total 72 hrs growth period alamar blue assay relative to control; assay type: functional, cell-based
LP-1 [30] = test: Cytotoxicity against human LP-1 cells assessed as reduction of cell viability at 20 to 30 uM treated for 24 hrs followed by washout measured after total 72 hrs growth period alamar blue assay relative to control; assay type: functional, cell-based
NCI-H929 [31] = test: Induction of apoptosis in human NCI-H929 cells assessed as reduction of RNA polymerase 2 phosphoserine 2 level at 30 uM after 1.5 hrs by immunoblotting; assay type: functional, cell-based
NCI-H929 [32] = test: Induction of apoptosis in human NCI-H929 cells assessed as reduction of RNA polymerase 2 phosphoserine 5 level at 30 uM after 1.5 hrs by immunoblotting; assay type: functional, cell-based
NCI-H929 [33] = test: Induction of apoptosis in human NCI-H929 cells assessed as reduction of total RNA polymerase 2 level at 30 uM after 1.5 hrs by immunoblotting; assay type: functional, cell-based
NCI-H929 [34] = test: Induction of apoptosis in human NCI-H929 cells assessed as fast migrating hypophosphorylated RNA polymerase 2A form at 30 uM after 1.5 hrs by immunoblotting; assay type: functional, cell-based
NCI-H929 [35] = test: Induction of apoptosis in human NCI-H929 cells assessed as […] slow migrating hyperphosphorylated RNA polymerase 2O form at 30 uM after 1.5 hrs by immunoblotting; assay type: functional, cell-based
NCI-H929 [36] = test: Induction of apoptosis in human NCI-H929 cells assessed as dephosphorylation of pRb at S249/T252 at 30 uM after 1.5 hrs by immunoblotting; assay type: functional, cell-based
NCI-H929 [37] = test: Induction of apoptosis in human NCI-H929 cells assessed as effect on total pRb level at 30 uM after 1.5 hrs by immunoblotting; assay type: functional, cell-based
NCI-H929 [38] = test: Induction of apoptosis in human NCI-H929 cells assessed as reduction of Mcl-1 protein level at 30 uM after 3 hrs by immunoblotting; assay type: functional, cell-based
NCI-H929 [39] = test: Induction of apoptosis in human NCI-H929 cells assessed as changes in Bcl-2 protein level at 30 uM after 3 hrs by immunoblotting; assay type: functional, cell-based
NCI-H929 [40] = test: Induction of apoptosis in human NCI-H929 cells assessed as reduction of Hdm2 level at 30 uM after 1.5 hrs by immunoblotting; assay type: functional, cell-based
NCI-H929 [41] = test: Induction of apoptosis in human NCI-H929 cells assessed as increase of p53 accumulation at 30 uM after 1.5 hrs by immunoblotting; assay type: functional, cell-based
LP-1 [42] = test: Induction of apoptosis in human LP-1 cells assessed as reduction of RNA polymerase 2 phosphoserine 2 level at 30 uM after 1.5 hrs by immunoblotting; assay type: functional, cell-based
RPMI-8226 [43] = test: Induction of apoptosis in human RPM18226 cells assessed as reduction of RNA polymerase 2 phosphoserine 2 level at 30 uM after 1.5 hrs by immunoblotting; assay type: functional, cell-based
LP-1 [44] = test: Induction of apoptosis in human LP-1 cells assessed as reduction of Mcl-1 protein level at 30 uM after 3 hrs by immunoblotting; assay type: functional, cell-based
RPMI-8226 [45] = test: Induction of apoptosis in human RPM18226 cells assessed as reduction of Mcl-1 protein level at 30 uM after 3 hrs by immunoblotting; assay type: functional, cell-based
[46] = Inhibition of CDK9/cyclin T
LP-1 [47] = test: Induction of apoptosis in human LP-1 cells assessed as increase in level of cleaved PARP at 300 nM after 16 hrs by immunoblotting; assay type: functional, cell-based
LP-1 [48] = test: Induction of apoptosis in human LP-1 cells assessed as reduction of Mcl-1 protein level at 300 nM after 16 hrs by immunoblotting; assay type: functional, cell-based

OC[C@H]1O[C@@H](n2cnc3cc(Cl)c(Cl)cc32)[C@H](O)[C@@H]1O [DICHLORORIBOBENZIMIDAZOLE]
Activity (NCI-H929 [1]): inactive
Activity (NCI-H929 [2]): Active
Activity (NCI-H929 [3]): Active
IC50 [4]: 20.1 µM
IC50 (LP-1 [5]): 29.8 µM
IC50 (U-266): 41 µM
IC50 (OPM-2): 29.5 µM
IC50 [6]: 46.8 µM
Activity (NCI-H929 [7]): Active
Activity (NCI-H929 [8]): Active
Activity (NCI-H929 [9]): inactive
Activity (NCI-H929 [10]): Active
Activity (NCI-H929 [11]): Active
Activity (NCI-H929 [12]): Active
Activity (NCI-H929 [13]): Active
Activity (NCI-H929 [14]): Active
Activity (NCI-H929 [15]): Active
Activity (NCI-H929 [16]): Active
Activity (NCI-H929 [17]): Active
Ratio IC50 [18]: 25
Ratio IC50 [19]: 25

CC[C@H](CO)Nc1nc(NCc2ccccc2)c2ncn(C(C)C)c2n1 [SELICICLIB]
Activity (NCI-H929 [20]): Active
Activity (NCI-H929 [21]): Active
IC50 (LP-1 [5]): 12.7 µM
IC50 (U-266): 17.9 µM
IC50 (OPM-2): 18.5 µM
IC50 [6]: 19.5 µM
Activity (NCI-H929 [22]): Active
Activity (LP-1 [23]): Active
Activity (RPMI-8226 [24]): Active
Activity (NCI-H929 [25]): >=60%
Activity (LP-1 [26]): >=60%
Activity (RPMI-8226 [27]): >=60%
Activity (LP-1 [28]): 50%
Activity (NCI-H929 [29]): Active
Activity (LP-1 [30]): Active
Activity (NCI-H929 [31]): Active
Activity (NCI-H929 [32]): Active
Activity (NCI-H929 [33]): inactive
Activity (NCI-H929 [34]): inactive
Activity (NCI-H929 [35]): Active
Activity (NCI-H929 [36]): Active
Activity (NCI-H929 [37]): inactive
Activity (NCI-H929 [38]): Active
Activity (NCI-H929 [39]): Active
Activity (NCI-H929 [40]): Active
Activity (NCI-H929 [41]): Active
Activity (LP-1 [42]): Active
Activity (RPMI-8226 [43]): Active
Activity (LP-1 [44]): Active
Activity (RPMI-8226 [45]): Active
IC50 [46]: 0.81 µM

CC(C)C[C@@H](C=O)NC(=O)[C@H](CC(C)C)NC(=O)[C@H](CC(C)C)NC(=O)OCc1ccccc1 (Cbz-Leu-Leu-Leu-aldehyde)
Activity (LP-1 [47]): Active
Activity (LP-1 [48]): inactive
